Test results published in patent publication US9040715B2 (priority 2008, dated 2015).
≈ marks a conversion by molar mass, not a printed value.

Tests used:
[1] = tested on: Saccharomyces cerevisiae (YPH501); test: Anti-fungal/anti-yeast activity: MIC50 (broth microdilution) and MFC; type: cell-based
Huh7 or HepG2 cell line = test: MTT assay (cytotoxicity); type: cell-based, human; details: 24 hours and 48 hours
Protocol: The MTT assay is a colorimetric assay that measures the reduction of yellow 3-(4,5-dimethylhiazol-2-yl)-2,5-diphenyl tetrazolium bromide (MTT) by mitochondrial succinate dehydrogenase. The MTT enters the cells and passes into the mitochondria where it is reduced to an insoluble, dark purple, formazan product. The cells are then solubilized with an organic solvent (e.g., isopropanol) and the released, solubilized formazan reagent is measured spectrophotometrically. Since reduction of MTT can only occur in metabolically active cells, the level of activity is a measure of the viability of the cells.
Cells of the Huh7 or HepG2 cell line were seeded in a 96 well plate. The plate was incubated overnight at 37° C. in a humidified incubator, 5% CO2. The test compounds were added to the plate. Different concentrations of drug were tested in triplicate along with a negative control. The final volume was adjusted to 100 μl per well. The plate was incubated overnight at 37° C. in a humidified incubator, 5% CO2. After 24 hours and 48 hours, MTT reagent (5 mg/ml, 10 μl/100 μl per well of the 96 well plate) was added and incubated at 37° C. for 3 hours. After 3 hours, 100 μl of the DMSO solution was added to each well and the plate was rocked at room temperature for 1 hour. The plate was then read on a plate reader at […].

Candida lusitaniae = test: Anti-fungal/anti-yeast activity: MIC50 (broth microdilution) and MFC; type: cell-based
Protocol: (§1) Fluconazole, an ergosterol inhibitor, and the beta-1,3-glucan inhibitor micafungin served as controls (See Tables 1-8).
(§2) The minimum inhibitory concentrations resulting in 50% growth inhibition (MIC50) of […] Candida species (C. albicans, C. tropicalis and C. glabrata, C. lusitaniae, C. parapsilosis, and C. apicola) as well as Aspergillus fumigatus to a set of novel synthetic compounds was determined in accordance with the guidelines in CLSI document M27-A2 (Clinical and Laboratory Standards Institute; Wayne, Pa.). The total volume of cells and drug was 100 μL per microtiter well, and each drug was diluted in RPMI to achieve final concentrations of 0.2-100 μg/ml. Uninoculated cultures were used as a reference standard. Stock inoculum suspensions were prepared from 24 hour cultures on YPD (yeast extract/peptone/dextrose) media at 30° C. For MIC determinations, an inoculum of 1.0×10^3 cells of Candidia and 2.0×10^3 cells of Aspergillus per well were used, and cells in diluted drugs were prepared in RPMI-1640 medium. MICs were determined both visually and spectrophotometrically at 24 hours and 48 h at 550 nm using a micro plate reader. The MIC50 endpoint was measured as the lowest drug concentration resulting in a reduction of growth of 50% or more compared with growth of the control.
(§3) The minimum fungicidal concentrations (MFCs) were determined for each drug-isolate-medium combination as follows. After 48 hours of incubation, 100 μL of each drug-isolate-medium combination (2 plates) was subcultured onto YPD plates (100 μL of solution was spread over the YPD plate). […] The plates were then incubated at 30° C. for 48 hours.
(§4) The in vitro fungicidal activities (MFCs) were determined for each drug-isolate-medium combination as follows. After 48 hours of incubation, 10 μL each drug-isolate-medium combination was spotted onto YPD plates (10 μL of each well is spotted sequentially with positive and negative control wells). […] The plates were then incubated at 30° C. for 48 hours.

Candida glabrata = test: as above; type: cell-based
Protocol: as §1, §2, §3, §4

Candida albicans (CAF-2) = test: as above; type: cell-based
Protocol: as §1, §2, §3, §4

Candida apicola = test: as above; type: cell-based
Protocol: as §1, §2, §3, §4

Candidia parapsilosis = test: as above; type: cell-based
Protocol: as §1, §2, §3, §4

Candida tropicalis = test: as above; type: cell-based
Protocol: as §1, §2, §3, §4

Huh7 cells = test: Neutral red uptake assay (cytotoxicity); type: cell-based, human
From the text: The neutral red uptake assay is a cytotoxicity test that is based on the ability of viable cells to incorporate and bind the supra-vital dye neutral red in the lysosomes. This weakly cationic dye penetrates cell membranes by non-ionic passive diffusion and concentrates in the lysosomes, where it binds by electrostatic hydrophobic bonds to anionic and phosphate groups of the lysosomal matrix. The dye is then extracted from the viable cells using an acidified ethanol solution, and the absorbance of the solubilized dye is read. When the cell dies or the pH gradient is reduced, the dye is not retained and consequently, the amount of retained dye is proportional to the number of viable cells. Most primary cells and cell lines can be used for this method. The HepG2 and Huh7, two human hepatoma cell lines, were used for this study. The cells were seeded in 96-well tissue culture plates and treated for 48 hours with the compounds. The plates were then incubated for 2 hours with a medium containing neutral red. The cells were subsequently washed, the dye was extracted in each well, and the absorbance was read using a spectrophotometer (FIG. 3 and Table 11).

[2] = Saccharomyces cerevisiae (YPH501)

## CC(=O)NNC(=O)Cn1sc2ccccc2c1=O [Compound I-7]
[1]; Saccharomyces cerevisiae
  MFC: 12.5 mg/L (≈ 47.1 µM)
[1]; [2]
  Activity (fungicidal/fungistatic): fungicidal (An MFC/MIC ratio of less than four indicates that the compound is fungicidal)
  Ratio MFC/MIC: 1
[1]; Saccharomyces cerevisiae, read-out: MIC-50
  MIC: 12.5 mg/L (≈ 47.1 µM)
Huh7 or HepG2 cell line
  Toxicity to mammalian cell lines (MTT assay): minimally toxic
Candida lusitaniae; Candida lusitaniae
  Activity (fungicidal/fungistatic): fungicidal (An MFC/MIC ratio of less than four indicates that the compound is fungicidal)
  Ratio MFC/MIC: 1
Candida lusitaniae; Clavispora lusitaniae
  MFC: 12.5 mg/L
Candida lusitaniae; Clavispora lusitaniae, read-out: MIC-50
  MIC: 12.5 mg/L
Candida glabrata; Candida glabrata
  Activity (fungicidal/fungistatic): fungicidal (An MFC/MIC ratio of less than four indicates that the compound is fungicidal)
  Ratio MFC/MIC: 2
Candida glabrata; Nakaseomyces glabratus
  MFC: 50 mg/L
Candida glabrata; Nakaseomyces glabratus, read-out: MIC-50
  MIC: 25 mg/L
Candida albicans (CAF-2)
  Activity (fungicidal/fungistatic): fungicidal (An MFC/MIC ratio of less than four indicates that the compound is fungicidal)
  MFC: 6.4 mg/L
  Ratio MFC/MIC: 1
Candida albicans (CAF-2); read-out: MIC-50
  MIC: 6.4 mg/L
Candida apicola; Candida apicola
  Activity (fungicidal/fungistatic): fungicidal (An MFC/MIC ratio of less than four indicates that the compound is fungicidal)
  MIC-50: 12.5 mg/L
  Ratio MFC/MIC: 1
Candida apicola; Starmerella apicola
  MFC: 12.5 mg/L
Candidia parapsilosis
  MFC: 12.5 mg/L
Candidia parapsilosis; Candidia parapsilosis
  Activity (fungicidal/fungistatic): fungicidal (An MFC/MIC ratio of less than four indicates that the compound is fungicidal)
  Ratio MFC/MIC: 1
Candidia parapsilosis; read-out: MIC-50
  MIC: 12.5 mg/L
Candida tropicalis
  Activity (fungicidal/fungistatic): fungicidal (An MFC/MIC ratio of less than four indicates that the compound is fungicidal)
  MFC: 12.5 mg/L
  Ratio MFC/MIC: 1
Candida tropicalis; read-out: MIC-50
  MIC: 12.5 mg/L
Huh7 cells; 3.3 μg/mL (approx 1X MIC)
  Percentage Viability: >100%
Huh7 cells; 10 μg/mL (approx 3X MIC)
  Percentage Viability: >100%
Huh7 cells; 33 μg/mL (approx 10X MIC)
  Percentage Viability: >100%
Huh7 cells; 100 μg/mL (approx 30X MIC)
  Percentage Viability: >100%
